Laboratory results reported in patent US4698350A, “1-ethyl-6-fluoro-1,4-dihydro- 7-(2,6-dimethyl-4-pyridinyl)-4-oxo-3-quinolinecarboxylic acid and antibacterial use thereof” (Sterling Drug Inc., priority 1984, dated 1987).
≈ marks a conversion by molar mass, not a printed value. Where a name gives a salt, the structure may show the parent alone. Read-outs that look alike come from different tables or passages of the source.

Key:
S. edidermidis = assay: In vitro MIC/MBC summary (Table II); type: cell-based, S. epidermidis; conditions: Staphylococcus epidermidis; for MIC: read-out: MIC Range
Experimental: (§1) Win 52,522 and Win 35,439 were solubilized in 0.1 ml of 0.5 N NaOH/mg of compound and diluted in sterile distilled water to 160 mcg/ml. Vancomycin and methicillin were solubilized in sterile distilled water to 1250 mcg/ml of base compound. The stock solutions were sterilized by filtration through membrane filters with a 0.45 μm pore size.
(§2) The bacterial cultures listed in Table I (hereinbelow) were grown overnight at 37° C. in MHB for all cultures except the Streptococcus strains. These were grown in BHI+10% NHS. The overnight broth cultures were adjusted to an optical density of 0.10 (650 nm, B L Spectronic 20) in sterile distilled water and subsequently diluted to 6.7×10^6 cells/ml in MHB or BHI+1% NHS.
(§3) Serial two-fold dilutions of the compound solutions were prepared in MHB (or in BHI+1% NHS for tests with Streptococci) and dispensed into 96-well microtiter trays in a volume of 0.1 ml/well using a Sandy Springs (Bellco Glass Co.) dispenser. The trays were then inoculated with 0.0015 ml of a suspension containing 6.7×10^6 cells/ml of the appropriate inoculum using a MIC-2000 inoculator (Dynatech Corp.) resulting in a final inoculum of approximately 1×10^4 cells/well or 1×10^5 cells/ml. The trays were incubated at 37° C. for 18-20 hours and the minimal inhibitory concentration (MIC), defined as the lowest concentration of compound to inhibit visible bacterial growth, was recorded.
(§4) After the MIC values were recorded, the contents in the microtiter trays were thoroughly mixed on a Bellco Mini-orbital Shaker (Bellco Glass Co.) for 3 min. at a setting of 8. A portion (0.0015 ml) from each well was then transferred via an MIC-2000 inoculator to plates containing MHA or BHI agar+10% NHS. The plates were incubated at 37° C. for 18-20 hrs. The minimal bactericidal concentration (MBC), defined as the lowest concentration of compound that prevented the formation of a recognizable colony on the agar surface, was recorded.

S. pneumoniae Type I = assay: In vitro antibacterial MIC/MBC test; type: cell-based; conditions: Streptococcus pneumoniae
Experimental: as §1, §2, §3, §4

S. aureus 10-81 = assay: In vitro antibacterial MIC/MBC test; type: cell-based; conditions: Staphylococcus aureus, 1081
Experimental: as §1, §2, §3, §4

S. aureus VA16951 = assay: In vitro antibacterial MIC/MBC test; type: cell-based; conditions: Staphylococcus aureus
Experimental: as §1, §2, §3, §4

S. faecalis (8043) = assay: In vitro antibacterial MIC/MBC test; type: cell-based; conditions: Enterococcus faecalis, ATCC8043
Experimental: as §1, §2, §3, §4

S. aureus 34-81 = assay: In vitro antibacterial MIC/MBC test; type: cell-based; conditions: Staphylococcus aureus, 3481
Experimental: as §1, §2, §3, §4

S. enterococcus 0-2-13 = assay: In vitro antibacterial MIC/MBC test; type: cell-based; conditions: 0213
Experimental: as §1, §2, §3, §4

S. aureus 13-8-A = assay: In vitro antibacterial MIC/MBC test; type: cell-based; conditions: Staphylococcus aureus, 138A
Experimental: as §1, §2, §3, §4

[1] = system: Staphylococcus aureus 39881 (Methicillin-resistant); assay: Mouse protection test, S. aureus 39881 (methicillin-resistant) infection; type: in vivo, ICR mice; Staphylococcus aureus; conditions: for Survivors/Total: two doses; for ED50: Staphylococcus aureus, 168 h, sc, read-out: Protective Dose 50% (95% Confidence Limits)
Experimental: (§5) ICR mice, female, 18-20 grams each.
(§6) Solutions of Win 52,522 and Win 35,439 were prepared by dissolving the appropriate weight of drug in 0.3 to 0.4 ml of 1 N NaOH and then bringing the solutions to the desired volume with distilled water. Methicillin and vancomycin were dissolved directly in distilled water.
The culture was streaked onto three Brain Heart Infusion Agar plates and incubated 16 hours at 37° C. The cells were washed off each plate with five ml of saline and the cell suspension was shaken with glass beads for two minutes on a paint shaker. The suspension was diluted with saline so that a […] gave a 44% T reading on a B+L Spectronic 20 (650 nm) calibrated with saline. The stock suspension was diluted 1:24 (10 ml stock suspension+230 ml 5% mucin) to obtain the test inoculum containing 1.55×10^9 cells/ml.
(§7) Mice were inoculated intraperitoneally with 0.5 ml of the bacterial test inoculum.
Mice were medicated twice: at one-half and four hours postinfection. The drugs were administered by both subcutaneous (0.2 ml) and oral (0.5 ml) routes.
(§8) Deaths were recorded daily for seven days for all tests. Fifty percent protective dose values (PD50's) were calculated using probit analysis [SAS Users Guide: Statistics, 1982 Edition, SAS Institute, Inc., Cary, N.C.].

Streptococcus sp. = assay: In vitro MIC/MBC summary (Table II); type: cell-based
Experimental: as §1, §2, §3, §4

S. aureus = assay: In vitro MIC/MBC summary (Table II); type: cell-based; conditions: Staphylococcus aureus; for MIC: read-out: MIC Range
Experimental: as §1, §2, §3, §4

[2] = system: Staphylococcus aureus Smith; assay: Mouse protection test, S. aureus Smith infection, single dose; type: in vivo, ICR mice; Staphylococcus aureus; conditions: for Survivors/Total: single dose
Experimental: as §5, §6
Two and one-half ml of pool were added to 247.5 ml of 5% gastric mucin to provide the test inoculum containing 2.1×10^4 cells/ml.
as §7
1. Single dose test--Mice were medicated subcutaneously or orally once (0.5 ml) one-half hour postinfection.
as §8

`COc1cccc(OC)c1C(=O)N[C@@H]1C(=O)N2[C@@H]1SC(C)(C)[C@@H]2C(=O)O` [Methicillin, 6-(2,6-dimethoxybenzamido)penicillanic acid sodium salt] gave an MBC (S. edidermidis; 5 S. edidermidis strains, read-out: MBC 50%) of 4 µg/mL, an MBC (S. edidermidis; 5 S. edidermidis strains, read-out: MBC 90%) of 4 µg/mL and an MBC (S. edidermidis; 5 S. edidermidis strains, read-out: MBC Range) of 2 to 4 µg/mL. It also gave an MIC50 (S. edidermidis; 5 S. edidermidis strains, read-out: MIC 50%) of 2 µg/mL, an MIC90 (S. edidermidis; 5 S. edidermidis strains, read-out: MIC 90%) of 4 µg/mL and an MIC (S. edidermidis; 5 S. edidermidis strains) of 1 to 4 µg/mL. The MBC (S. pneumoniae Type I; S. pneumoniae Type I, read-out: MBC) was ≤ 0.06 µg/mL, the MIC (S. pneumoniae Type I; S. pneumoniae Type I, read-out: MIC) was ≤ 0.06 µg/mL and the MBC (S. aureus 10-81; S. aureus 10-81, read-out: MBC) was 16 µg/mL. For the same compound, the MIC (S. aureus 10-81; S. aureus 10-81, read-out: MIC) was 8 µg/mL, the MBC (S. aureus VA16951; S. aureus VA16951, read-out: MBC) was 8 µg/mL and the MIC (S. aureus VA16951; S. aureus VA16951, read-out: MIC) was 4 µg/mL. For the same compound, the MBC (S. faecalis (8043); S. faecalis ATCC No. 8043, read-out: MBC) was > 125 µg/mL, the MIC (S. faecalis (8043); S. faecalis ATCC No. 8043, read-out: MIC) was > 125 µg/mL and the MBC (S. aureus 34-81; S. aureus 34-81, read-out: MBC) was 2 µg/mL. For the same compound, the MIC (S. aureus 34-81; S. aureus 34-81, read-out: MIC) was 1 µg/mL, the MBC (S. enterococcus 0-2-13; S. enterococcus 0-2-13, read-out: MBC) was 8 µg/mL and the MIC (S. enterococcus 0-2-13; S. enterococcus 0-2-13, read-out: MIC) was 8 µg/mL. The MBC (S. aureus 13-8-A; S. aureus 13-8-A, read-out: MBC) was 2 µg/mL, the MIC (S. aureus 13-8-A; S. aureus 13-8-A, read-out: MIC) was 1 µg/mL and the Survivors/Total ([1]; 25 mg/kg sc) was 0/10. The Survivors/Total ([1]; 50 mg/kg sc) was 0/10, the Survivors/Total ([1]; 100 mg/kg sc) was 0/10 and the ED50 ([1]; two doses one-half and four hours postinfection) was > 100 mg/kg. It also gave an MBC (Streptococcus sp.; 9 Streptococcus sp. strains, read-out: MBC 50%) of 0.125 µg/mL, an MBC (Streptococcus sp.; 9 Streptococcus sp. strains, read-out: MBC 90%) of 64 µg/mL and an MIC50 (Streptococcus sp.; 9 Streptococcus sp. strains, read-out: MIC 50%) of 0.25 µg/mL. The MIC90 (Streptococcus sp.; 9 Streptococcus sp. strains, read-out: MIC 90%) was 64 µg/mL, the MIC50 (S. aureus) was 2 µg/mL and the MIC90 (S. aureus) was 8 µg/mL. The MBC (S. aureus; read-out: MBC 90%) was > 64 µg/mL and the MIC (S. aureus) was 1 to 125 µg/mL.
`CN[C@H](CC(C)C)C(=O)N[C@H]1C(=O)N[C@@H](CC(N)=O)C(=O)N[C@H]2C(=O)N[C@H]3C(=O)N[C@H](C(=O)N[C@H](C(=O)O)c4cc(O)cc(O)c4-c4cc3ccc4O)[C@H](O)c3ccc(c(Cl)c3)Oc3cc2cc(c3O[C@@H]2O[C@H](CO)[C@@H](O)[C@H](O)[C@H]2O[C@H]2C[C@](C)(N)[C@H](O)[C@H](C)O2)Oc2ccc(cc2Cl)[C@H]1O` [Vancomycin] showed an MIC50 (S. edidermidis) of 1 µg/mL (≈ 0.69 µM), an MIC90 (S. edidermidis) of 1 µg/mL (≈ 0.69 µM) and an MBC (S. edidermidis; read-out: MBC 50%) of 1 µg/mL (≈ 0.69 µM). For the same compound, the MBC (S. edidermidis; read-out: MBC 90%) was 2 µg/mL (≈ 1.38 µM), the MBC (S. edidermidis; read-out: MBC Range) was 1 to 2 µg/mL (≈ 0.69 to 1.38 µM) and the MIC (S. edidermidis) was 1 to 2 µg/mL (≈ 0.69 to 1.38 µM). The MBC (S. pneumoniae Type I) was 16 µg/mL (≈ 11 µM), the MIC (S. pneumoniae Type I) was 16 µg/mL (≈ 11 µM) and the MBC (S. aureus 10-81) was 1 µg/mL (≈ 0.69 µM). For the same compound, the MIC (S. aureus 10-81) was 1 µg/mL (≈ 0.69 µM), the MBC (S. aureus VA16951; VA16951) was 1 µg/mL (≈ 0.69 µM) and the MIC (S. aureus VA16951; VA16951) was 1 µg/mL (≈ 0.69 µM). The MBC (S. faecalis (8043)) was > 125 µg/mL, the MIC (S. faecalis (8043)) was 1 µg/mL (≈ 0.69 µM) and the MBC (S. aureus 34-81) was 0.5 µg/mL (≈ 0.345 µM). For the same compound, the MIC (S. aureus 34-81) was 0.5 µg/mL (≈ 0.345 µM), the MBC (S. enterococcus 0-2-13; Enterococcus) was 16 µg/mL (≈ 11 µM) and the MIC (S. enterococcus 0-2-13; Enterococcus) was 0.25 µg/mL (≈ 0.173 µM). For the same compound, the MBC (S. aureus 13-8-A) was 0.5 µg/mL (≈ 0.345 µM), the MIC (S. aureus 13-8-A) was 0.5 µg/mL (≈ 0.345 µM) and the Survivors/Total ([1]; 6.25 mg/kg sc) was 0/10. For the same compound, the Survivors/Total ([1]; 12.5 mg/kg sc) was 1/10, the Survivors/Total ([1]; 25 mg/kg sc) was 9/10 and the Survivors/Total ([1]; 50 mg/kg sc) was 10/10. For the same compound, the ED50 [1] was 17.7 mg/kg, the Survivors/Total ([2]; 0.78 mg/kg sc) was 2/10 and the Survivors/Total ([2]; 1.56 mg/kg sc) was 9/10. For the same compound, the Survivors/Total ([2]; 3.13 mg/kg sc) was 9/10, the Survivors/Total ([2]; 6.25 mg/kg sc) was 10/10 and the Survivors/Total ([2]; 12.5 mg/kg sc) was 10/10. For the same compound, the ED50 ([2]; Staphylococcus aureus, sc, 168 h, read-out: Protective Dose 50% (95% Confidence Limits)) was 1.1 mg/kg, the MIC50 (Streptococcus sp.; Streptococcus) was 2 µg/mL (≈ 1.38 µM) and the MIC90 (Streptococcus sp.; Streptococcus) was 16 µg/mL (≈ 11 µM). For the same compound, the MBC (Streptococcus sp.; Streptococcus, read-out: MBC 50%) was 16 µg/mL (≈ 11 µM), the MBC (Streptococcus sp.; Streptococcus, read-out: MBC 90%) was > 125 µg/mL and the MIC (Streptococcus sp.; Streptococcus, read-out: MIC Range) was 0.06 to 16 µg/mL (≈ 0.0414 to 11 µM). It also gave an MBC (S. aureus; 15 S. aureus strains, read-out: MBC 50%) of 1 µg/mL (≈ 0.69 µM), an MBC (S. aureus; 15 S. aureus strains, read-out: MBC 90%) of 1 µg/mL (≈ 0.69 µM) and an MBC (S. aureus; 15 S. aureus strains, read-out: MBC Range) of 0.5 to 1 µg/mL (≈ 0.345 to 0.69 µM). For the same compound, the MIC50 (S. aureus; 15 S. aureus strains, read-out: MIC 50%) was 1 µg/mL (≈ 0.69 µM), the MIC90 (S. aureus; 15 S. aureus strains, read-out: MIC 90%) was 1 µg/mL (≈ 0.69 µM) and the MIC (S. aureus; 15 S. aureus strains) was 0.5 to 1 µg/mL (≈ 0.345 to 0.69 µM).
